Results reported in patent US20230080054A1 (ILDONG PHARMACEUTICAL CO., LTD., priority 2021, published 2023).

Biological target: T1, human ANO6 (Homo sapiens, UniProt Q4KMQ2)
T1 construct: expressed in transfected cells
T1 sequence (Q4KMQ2 1-931 isoform Q4KMQ2-2): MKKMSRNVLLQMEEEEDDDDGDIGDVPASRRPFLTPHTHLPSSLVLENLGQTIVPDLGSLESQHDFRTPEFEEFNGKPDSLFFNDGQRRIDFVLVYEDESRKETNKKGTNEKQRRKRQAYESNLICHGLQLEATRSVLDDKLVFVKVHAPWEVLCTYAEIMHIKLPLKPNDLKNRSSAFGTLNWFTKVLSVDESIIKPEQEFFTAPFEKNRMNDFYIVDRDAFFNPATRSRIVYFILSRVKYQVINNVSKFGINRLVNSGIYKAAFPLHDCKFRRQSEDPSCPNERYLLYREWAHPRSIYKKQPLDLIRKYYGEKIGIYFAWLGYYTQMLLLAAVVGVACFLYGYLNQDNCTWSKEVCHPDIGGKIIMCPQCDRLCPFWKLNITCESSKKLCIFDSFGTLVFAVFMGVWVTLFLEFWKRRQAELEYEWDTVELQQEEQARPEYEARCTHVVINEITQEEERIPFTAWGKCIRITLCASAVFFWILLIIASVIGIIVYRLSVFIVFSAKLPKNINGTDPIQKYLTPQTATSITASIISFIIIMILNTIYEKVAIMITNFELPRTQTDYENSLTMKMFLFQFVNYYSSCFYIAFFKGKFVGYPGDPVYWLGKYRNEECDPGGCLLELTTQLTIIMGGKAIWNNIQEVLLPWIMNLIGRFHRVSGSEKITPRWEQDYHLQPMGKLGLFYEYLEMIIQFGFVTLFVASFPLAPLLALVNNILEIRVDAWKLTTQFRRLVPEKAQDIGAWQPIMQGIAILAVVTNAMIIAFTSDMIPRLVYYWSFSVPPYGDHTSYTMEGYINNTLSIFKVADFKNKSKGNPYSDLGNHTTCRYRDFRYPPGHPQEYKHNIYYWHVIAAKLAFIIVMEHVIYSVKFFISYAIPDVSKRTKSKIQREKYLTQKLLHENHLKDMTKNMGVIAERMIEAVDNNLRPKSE
Experiment: LACT C2 assay (phosphatidylserine scramblase function assay)
Format: cell-based
Settings: FRT cells expressing human ANO6, 10 μM ionomycin; for inhibition at 0.1 µM: test compound 100 nM, read-out: Inhibition Level 100 nM; for inhibition at 1 µM: test compound 1 μM, read-out: Inhibition Level 1 μM
Source text: Phosphatidylserine Scramblase Function Assay
1. Materials and Instruments
Ionomycin (Alomonelab, cat. #I-700), DAPI (Sigma-Aldrich, cat. #D8417), paraformaldehyde (Biosesang, cat. #P2031), Lionheart FX Automated Microscope (BioTek, Winooski), Python3 (Python Software Foundation), and OpenCV (Open Source Computer Vision Library).
Fisher rat thyroid (FRT) cells stably expressing human ANO6 (GenBank accession no. NP_001191732.1, provided by J. H. Nam, Dongguk University College of Medicine, Korea) were grown in DMEM/Ham's F-12 (1:1) medium with 10% FBS, 2 mM L-549 glutamine, 100 units/mL penicillin, and 100 μg/mL streptomycin at 37° C. and 5% CO2.
FRT cells stably expressing human ANO6 were plated in 96 well black-walled microplates at a density of 2×10^4 cells/well. After 24 hours incubation, cells were treated with the test compound (dissolved in DMSO) were treated to each well to become 1% v/v DMSO for 10 minutes, then 10 μM of ionomycin was applied. Finally each well was washed with 200 μL PBS after 10 minutes. After washout, the phosphatidylserine and nuclei were stained with PBS containing 500 nM Lactadherin-C2 (Lact-C2)-GFP, then cells were washed with 200 μL PBS. Cells were fixed with 4% paraformaldehyde for 5 minutes at room temperature. For morphological analysis, some cells were stained with fluorescently labelled DAPI for 15 minutes at room temperature. Quantitative analysis of the fluorescence intensity of Lact-C2-GFP was performed with Python3 and OpenCV. OpenCV was used to remove background and noise pixels, and the sum of all remaining pixel values was used to evaluate the fluorescence intensity of Lact-C2-GFP.
The inhibitory activity (%) of each of the test compounds was obtained by the following steps. In each row of 96 well plate, the inhibitory activity of each of the test compounds was calculated as percentages. The inhibitory activity of a negative control group to which neither compounds nor ionomycin were treated was set to be 100%, and the inhibitory activity of a positive control group to which ionomycin was treated and compounds were not treated was set to be 0%. The assay was performed in triplicate, and the results were averaged.

Row | inhibition at 0.1 µM | inhibition at 1 µM | Structure (SMILES)
1 | < 30% | < 30% | O=C(NC1(CO)CC1)c1cccc(Nc2ncc(-c3cccc(F)c3)cn2)c1 [Compound 219, 3-((5-(3-fluorophenyl)pyrimidin-2-yl)amino)-N-(1-(hydroxymethyl)cyclopropyl)benzamide]
2 | < 30% | ≥ 60% | COc1ccc([C@@H]2C[C@H]2NC(=O)c2cccc(Nc3ccc(-c4ccccc4)nn3)c2)cc1 [Compound 236, N-((1R,2S)-2-(4-methoxyphenyl)cyclopropyl)-3-((6-phenylpyridazin-3-yl)amino)benzamide]
3 | < 30% | 30 to 60% | O=C(NCc1ccc(F)cc1)c1cccc(Nc2ncc(-c3cccc(F)c3)cn2)c1 [Compound A96]
4 | < 30% | 30 to 60% | CN1CCN(c2cc(CNC(=O)c3cccc(Nc4ccc(-c5ccccc5)nn4)c3)ccc2F)CC1 [Compound 227, N-(4-fluoro-3-(4-methylpiperazin-1-yl)benzyl)-3-((6-phenylpyridazin-3-yl)amino)benzamide]
5 | < 30% | < 30% | O=C(NCc1ccccc1F)c1cccc(Nc2ncc(-c3cccc(F)c3)cn2)c1 [Compound 203, N-(2-fluorobenzyl)-3-((5-(3-fluorophenyl)pyrimidin-2-yl)amino)benzamide]
6 | < 30% | ≥ 60% | O=C(NCc1ccc(F)cc1Br)c1cccc(Nc2ccc(-c3ccccc3)nn2)c1 [Compound 200, N-(2-bromo-4-fluorobenzyl)-3-((6-phenylpyridazin-3-yl)amino)benzamide]
7 | < 30% | < 30% | O=C(NC1(CO)CC1)c1cccc(Nc2ccc(-c3ccccc3)nn2)c1 [Compound 228, N-(1-(hydroxymethyl)cyclopropyl)-3-((6-phenylpyridazin-3-yl)amino)benzamide]
8 | < 30% | 30 to 60% | O=C(NCc1ccc(F)c(F)c1)c1cccc(Nc2ccc(-c3ccccc3)nn2)c1 [Compound 230, N-(3,4-difluorobenzyl)-3-((6-phenylpyridazin-3-yl)amino)benzamide]
9 | < 30% | ≥ 60% | Cc1ccc(NC(=O)c2cccc(Nc3ncc(-c4cccc(F)c4)cn3)c2)cc1 [Compound A102]
10 | 30 to 60% | ≥ 60% | Cc1ccc([C@@H]2C[C@H]2NC(=O)c2cccc(Nc3ccc(-c4ccccc4)nn3)c2)cc1 [Compound 235, 3-((6-phenylpyridazin-3-yl)amino)-N-((1R,2S)-2-(p-tolyl)cyclopropyl)benzamide]
11 | < 30% | 30 to 60% | O=C(NCc1ccc(Br)cc1)c1cccc(Nc2ncc(-c3cccc(F)c3)cn2)c1 [Compound A100]
12 | < 30% | 30 to 60% | N#CC1(NC(=O)c2cccc(Nc3ncc(-c4cccc(F)c4)cn3)c2)CC1 [Compound 218, N-(1-cyanocyclopropyl)-3-((5-(3-fluorophenyl)pyrimidin-2-yl)amino)benzamide]

Further lines, the compound ahead of its results:

Row | Structure (SMILES) | inhibition at 0.1 µM | inhibition at 1 µM
13 | O=C(N[C@@H]1C[C@H]1c1ccccc1)c1ccnc(Nc2ncc(-c3ccccc3)cn2)c1 [Compound 178, N-((1R,2S)-2-phenylcyclopropyl)-2-((5-phenylpyrimidin-2-yl)amino)isonicotinamide] | 30 to 60% | 
14 | Nc1ccccc1NC(=O)c1cccc(Nc2ccc(-c3cccc(F)c3)cn2)c1 [Compound 143, N-(2-aminophenyl)-3-((5-(3-fluorophenyl)pyridin-2-yl)amino)benzamide] | < 30% | 30 to 60%
15 | O=C(N[C@@H]1C[C@H]1c1ccccc1)C12CC3CC(CC(Nc4ccc(-c5ccccc5)nn4)(C3)C1)C2 [Compound 166, N-((1R,2S)-2-phenylcyclopropyl)-3-((6-phenylpyridazin-3-yl)amino)adamantane-1-carboxamide] | < 30% | 
16 | Cc1ccc(CCNC(=O)c2cccc(Nc3ncc(-c4cccc(F)c4)cn3)c2)o1 [Compound 151, 3-((5-(3-fluorophenyl)pyrimidin-2-yl)amino)-N-(2-(5-methylfuran-2-yl)ethyl)benzamide] | < 30% | < 30%
17 | O=C(NC1(c2ccc(F)cc2)CC1)c1cccc(Nc2ccc(-c3ccccc3)nn2)c1 [Compound 196, N-(1-(4-fluorophenyl)cyclopropyl)-3-((6-phenylpyridazin-3-yl)amino)benzamide] | < 30% | 30 to 60%
18 | Cc1cscc1-c1cnc(Nc2cccc(C(=O)Nc3cccc(F)c3)c2)nc1 [Compound 179, N-(3-fluorophenyl)-3-((5-(4-methylthiophen-3-yl)pyrimidin-2-yl)amino)benzamide] | ≥ 60% | 
19 | O=C(N[C@@H]1C[C@H]1c1ccccc1)c1cncc(Nc2ncc(-c3ccccc3)cn2)c1 [Compound 156, N-((1R,2S)-2-phenylcyclopropyl)-5-((5-phenylpyrimidin-2-yl)amino)nicotinamide] | < 30% | 30 to 60%
20 | O=C(Nc1ccc2c(c1)CCN2)c1cccc(Nc2ncc(-c3cccc(F)c3)cn2)c1 [Compound 181, 3-((5-(3-fluorophenyl)pyrimidin-2-yl)amino)-N-(indolin-5-yl)benzamide] | < 30% | 
21 | N#Cc1cccc(NC(=O)c2cccc(Nc3ncc(-c4cccc(F)c4)cn3)c2)c1 [Compound 136, N-(3-cyanophenyl)-3-((5-(3-fluorophenyl)pyrimidin-2-yl)amino)benzamide] | < 30% | ≥ 60%
22 | O=C(N[C@@H]1C[C@H]1c1ccc(F)cc1)c1cccc(Nc2ccc(-c3ccccc3)nn2)c1 [Compound 199] | ≥ 60% | ≥ 60%
23 | O=C(NCCc1ccccc1C(=O)O)c1cccc(Nc2ncc(-c3cccc(F)c3)cn2)c1 [Compound 132, 2-(2-(3-((5-(3-fluorophenyl)pyrimidin-2-yl)amino)benzamido)ethyl)benzoic acid] | < 30% | < 30%
24 | O=C(N[C@@H]1C[C@H]1c1ccccc1)c1cc(Nc2ncc(-c3ccccc3)cn2)ccn1 [Compound 167, N-((1R,2S)-2-phenylcyclopropyl)-4-((5-phenylpyrimidin-2-yl)amino)picolinamide] | < 30% | 
25 | Nc1ccc(NC(=O)c2cccc(Nc3ccc(-c4cccc(F)c4)cn3)c2)cc1 [Compound 146, N-(4-aminophenyl)-3-((5-(3-fluorophenyl)pyridin-2-yl)amino)benzamide] | < 30% | 30 to 60%
26 | Nc1ccccc1CCNC(=O)c1cccc(Nc2ncc(-c3cccc(F)c3)cn2)c1 [Compound 148, N-(2-aminophenethyl)-3-((5-(3-fluorophenyl)pyrimidin-2-yl)amino)benzamide] | < 30% | < 30%
27 | O=C(N[C@@H]1C[C@H]1c1ccccc1)c1ccnc(Nc2ccc(-c3ccccc3)cn2)c1 [Compound 149, N-((1R,2S)-2-phenylcyclopropyl)-2-((5-phenylpyridin-2-yl)amino)isonicotinamide] | < 30% | ≥ 60%
28 | O=C(N[C@@H]1C[C@H]1c1ccccc1)c1cccc(Nc2nnc(-c3ccccc3)o2)c1 [Compound 159, 3-((5-phenyl-1,3,4-oxadiazol-2-yl)amino)-N-((1R,2S)-2-phenylcyclopropyl)benzamide] | < 30% | 30 to 60%
